For one assay, the system named is CWR22R. Briefly: Antiproliferative activity against human 22Rv1 cells assessed as reduction in cell viability after 96 hrs by propidium iodide staining based fluorescence assay. Format: functional.
Assay [1] in a line: Antiproliferative activity against human DU145 cells assessed as reduction in cell viability after 96 hrs by propidium iodide staining based fluorescence assay. In kind it is functional, DU-145.
In a further assay the test system is LNCaP. Briefly: Antiproliferative activity against human LNCAP cells assessed as reduction in cell viability after 96 hrs by propidium iodide staining based fluorescence assay. Format: functional.
A short description of assay [2]: Antiproliferative activity against human VCaP cells assessed as reduction in cell viability after 96 hrs by propidium iodide staining based fluorescence assay. Format: functional.
The next assay concerns HepG2. The experiment in a line: Cytotoxicity against human HepG2 cells assessed as cell viability after 72 hrs by MTT assay. The settings on record: for AC50 / minimal effective concentration: HepG2, 72 h; for minimal effective concentration: read-out: MEC. Format: functional, cell-based. For orientation: Formazan colour is commonly taken as a measure of viable cells.
Setting [3] is: Homo sapiens, 22Rv1, 96 h, read-out: IC50.
The mark [4] stands for this setting: Homo sapiens, DU-145, 96 h, read-out: IC50.
[5] abbreviates: Homo sapiens, LNCaP, 96 h, read-out: IC50.
[6] abbreviates: Homo sapiens, VCaP, 96 h, read-out: IC50.

Broadly, the IC50 is the concentration that inhibits the measured activity by half. For `CC(O)(CSc1cc(C(F)(F)F)cc(C(F)(F)F)c1)C(=O)Nc1ccc([N+](=O)[O-])cc1C(F)(F)F` (centres undefined), the half-inhibitory concentration (IC50) in the assay on CWR22R (setting [3]) turned out to be 2.29 µM; in assay [1] (setting [4]), 3.38 µM; with LNCaP (setting [5]) it was 3.11 µM; in assay [2] (setting [6]), 3.52 µM. Also, the Activity entry with HepG2 is “Dose-dependent effect”.

For `CC(O)(CSc1ccccc1C(F)(F)F)C(=O)Nc1cc(C(F)(F)F)cc(C(F)(F)F)c1` (centres undefined), the IC50 was found to be 4.37 µM with CWR22R (setting [3]), 8.66 µM in assay [1] (setting [4]), 3.57 µM in the assay on LNCaP (setting [5]) and 3.84 µM in assay [2] (setting [6]). The Activity result in the assay on HepG2 is “Dose-dependent effect”.

Regarding `CC(O)(CS(=O)(=O)c1cc(C(F)(F)F)cc(C(F)(F)F)c1)C(=O)Nc1ccc([N+](=O)[O-])cc1C(F)(F)F` (centres undefined), the IC50 was found to be 2.41 µM in the assay on CWR22R (setting [3]), 3.05 µM in assay [1] (setting [4]), 3.09 µM with LNCaP (setting [5]) and 7.11 µM in assay [2] (setting [6]). Also, in the assay with HepG2, the Activity entry is “Dose-dependent effect”.

In the case of `CC1(C)C(=O)N(c2ccc([N+](=O)[O-])c(C(F)(F)F)c2)C(=S)N1c1cc(C(F)(F)F)cc(C(F)(F)F)c1`, the IC50 with CWR22R (setting [3]) amounted to 20.2 µM; in assay [1] (setting [4]) it was 18.1 µM; with LNCaP (setting [5]) it was 9.93 µM; in assay [2] (setting [6]) it was 28.4 µM. Further, the Activity entry with HepG2 was “Dose-dependent effect”.

`CC(O)(CSc1cccc(C(F)(F)F)c1)C(=O)Nc1cc(C(F)(F)F)cc(C(F)(F)F)c1` (centres undefined): the IC50 in the assay with CWR22R (setting [3]) came to 9.67 µM; in assay [1] (setting [4]), 10 µM; with LNCaP (setting [5]), 8.75 µM; in assay [2] (setting [6]), 9.86 µM. In addition, the Activity entry with HepG2 was “Dose-dependent effect”.

`CC1(C)C(=O)N(c2ccc(C#N)c(C(F)(F)F)c2)C(=S)N1c1cc(C(F)(F)F)cc(C(F)(F)F)c1`: the IC50 result (with CWR22R (cwr22r); in assay [1] (du-145); in the assay with LNCaP (lncap); in assay [2] (vcap)) was “ND(Insoluble)” throughout. In addition, the Activity entry with HepG2 was “Dose-dependent effect”.

By AC50 is commonly meant the concentration at which the activity in the assay is half-maximal. `N#CC(C#N)=NNc1cccc(Cl)c1` [CARBONYL CYANIDE M-CHLOROPHENYLHYDRAZONE]: in the assay with HepG2, the AC50 amounted to 8.28 µM and the minimal effective concentration is 3.25 µM.

Take `CC(O)(COc1cc(C(F)(F)F)cc(C(F)(F)F)c1)C(=O)Nc1ccc([N+](=O)[O-])cc1C(F)(F)F` (centres undefined): the concentration for half-maximal inhibition (IC50) in the assay on CWR22R (setting [3]) stood at 16.1 µM; in assay [1] (setting [4]) it was 11.6 µM; in the assay on LNCaP (setting [5]) it was 24 µM; in assay [2] (setting [6]), 23.7 µM. Moreover, in the assay on HepG2, the Activity result is “Dose-dependent effect”.

With `CC(O)(CS(=O)(=O)c1cc(C(F)(F)F)cc(C(F)(F)F)c1)C(=O)Nc1ccc(C#N)c(C(F)(F)F)c1` (centres undefined), the IC50 with CWR22R (setting [3]) was determined as 3.11 µM; in assay [1] (setting [4]) it was 5.58 µM; in the assay on LNCaP (setting [5]), 2.86 µM; in assay [2] (setting [6]), 6.21 µM. The Activity result in the assay on HepG2 is “Dose-dependent effect”.

`CNC(=O)c1ccc(N2C(=S)N(c3ccc(C#N)c(C(F)(F)F)c3)C(=O)C2(C)C)cc1F` [ENZALUTAMIDE]: the results for the IC50 (in assay [1] (setting [4]); with LNCaP (setting [5]); in assay [2] (setting [6])) were 32.3 µM, 11.5 µM and 53 µM, respectively. Moreover, in the assay on HepG2, the Activity entry was “Dose-dependent effect”.

Take `CC(O)(CS(=O)(=O)c1cc(C(F)(F)F)cc(C(F)(F)F)c1)C(=O)Nc1ccc(C#N)cc1C(F)(F)F` (centres undefined): the IC50 result (with CWR22R (cwr22r); in assay [1] (du-145); in the assay with LNCaP (lncap); in assay [2] (vcap)) was “ND(Insoluble)” each time. Moreover, the Activity entry with HepG2 was “Dose-dependent effect”.

As for `CC(O)(COc1cc(C(F)(F)F)cc(C(F)(F)F)c1)C(=O)Nc1ccc(C#N)cc1C(F)(F)F` (centres undefined), the IC50 in the assay on CWR22R (setting [3]) amounted to 4.07 µM; in assay [1] (setting [4]), 8.05 µM; in the assay with LNCaP (setting [5]), 3.56 µM; in assay [2] (setting [6]), 4.77 µM. For the same compound, the Activity entry in the assay on HepG2 is “Dose-dependent effect”.

Turning to `CC(O)(CS(=O)(=O)c1ccc(F)cc1)C(=O)Nc1ccc(C#N)c(C(F)(F)F)c1` (centres undefined), in the assay on HepG2, the Activity result is “Dose-dependent effect”.

As for `CN(C)CCCN1c2ccccc2Sc2ccc(Cl)cc21` [CHLORPROMAZINE], in the assay with HepG2, the AC50 amounted to 7.62 µM and the minimal effective concentration was 2.07 µM.
